Assay results taken from patent US4185156A, “Peptides and acid addition salts thereof” (Zaidan Hojin Biseibutsu Kagaku Kenkyu Kai, priority 1977, dated 1980).

Columns and labels:
aminopeptidase B [1] = biological target: T1, aminopeptidase B (Rattus norvegicus, UniProt O09175); assay: Inhibitory activity against aminopeptidase B (modified Hopsu et al. method, arginine-β-naphthylamide substrate); format: biochemical; conditions: pH 7.0, 37° C., 30-minute reaction
T1 construct: an aminopeptidase B solution purified by using Sephadex G-100; from tissue; rat liver in the cited Hopsu et al. method (own knowledge)
T1 sequence (O09175 1-650): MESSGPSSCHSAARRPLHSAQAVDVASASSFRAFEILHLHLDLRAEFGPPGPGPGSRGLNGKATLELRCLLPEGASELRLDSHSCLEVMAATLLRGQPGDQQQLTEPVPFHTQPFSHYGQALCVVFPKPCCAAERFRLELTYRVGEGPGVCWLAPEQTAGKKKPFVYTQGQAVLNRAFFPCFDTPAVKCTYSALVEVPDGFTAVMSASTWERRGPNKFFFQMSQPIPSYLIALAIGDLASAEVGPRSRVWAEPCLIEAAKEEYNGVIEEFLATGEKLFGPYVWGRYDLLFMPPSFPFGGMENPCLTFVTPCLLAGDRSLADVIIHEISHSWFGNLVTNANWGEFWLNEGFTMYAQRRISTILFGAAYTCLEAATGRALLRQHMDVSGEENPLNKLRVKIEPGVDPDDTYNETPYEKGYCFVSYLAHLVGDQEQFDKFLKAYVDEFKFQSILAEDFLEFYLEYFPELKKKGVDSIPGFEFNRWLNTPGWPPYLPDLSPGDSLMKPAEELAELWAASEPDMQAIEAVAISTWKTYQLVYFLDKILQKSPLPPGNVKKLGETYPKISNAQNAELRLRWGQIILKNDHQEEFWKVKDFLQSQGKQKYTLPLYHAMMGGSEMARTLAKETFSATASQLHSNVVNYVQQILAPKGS
Experimental: A modified version of the Hopsu et al. method (V. K. Hopsu, K. K. Makinen and G. G. Glenner, Archives of Biochemistry and Biophysics 114, 557 (1966)) was used for determining the aminopeptidase B activity. A mixed solution (pH 7.0) prepared by adding 1.0 ml of 0.1 M tris-hydrochloride buffer and 0.7 ml of a solution containing the specimen to 0.3 ml of 0.1 mM arginine-β-naphthylamide was heated at 37° C. for 3 minutes and then added with 0.2 ml of an aminopeptidase B solution purified by using Sephadex G-100 (trademark for gelfiltrant composed of dextran derivative, manufactured by Pharmacia Fine Chemicals Inc.) according to the enzyme purification method of Hopsu et al. After 30-minute reaction at 37° C., 0.6 ml of 1.0 M acetate buffer (pH 4.2) containing Garnet GBC (o-aminoazotoluene diazonium salt) in concentration of 1.0 mg/ml and Tween 20 in concentration of 1.0% was added, and allowing the mixture to stand at room temperature for 15 minutes, absorbance (a) at 530 nm was measured. There was also measured absorbance (b) of the control using the buffer solution not containing the specimen. The aminopeptidase B inhibition percent was calculated from (b-a)/b×100.
Inhibition percentages at various specimen concentrations were measured according to the above-said testing method, and 50% inhibition (ID50) was induced therefrom.

[2] = system: lymphocytes from the peripheral blood of healthy canines; assay: Lymphocyte blastoid transformation with phytohemagglutinin (PHA), 3H-Thymidine incorporation; format: cell-based, canines (Beagle, Male); conditions: for 3H-Td.eta. incorporation (mean cpm ± SE): PHA + compound, canine lymphocytes, 72 hrs culture; for effect on lymphocyte blastoid formation with PHA (in words): summary of table 2
Experimental: Lymphocytes were prepared asptically from the peripheral blood of healthy canines (Beagle, Male) by gradient centrifugation of ficollsodium metriazoate. The lymphocytes (1×10^6 cells/ml) were cultured in RPMI-1640 medium with 10% fetal calf serum, antibiotic (Kanamycin 60μg/ml) and 15μg of phytohemagglutinin(PHA) at 37° C. in a humidified atomosphere of 5% CO2 and 95% air. After an incubation for 48 hrs, 2μCi of ^3 H-Thymidine was added to each dish, and the culture was continued for further 24 hrs to determine DNA synthesis. DNA synthesis was measured as ^3 H-Thymidine incorporation into acid in soluble materials.

aminopeptidase B [3] = biological target: T1, aminopeptidase B; conditions: prior art; cited from earlier work
leucine aminopeptidase = conditions: prior art; cited from earlier work
Bleomycin hydrolase = biological target: T2, Bleomycin hydrolase (Homo sapiens, UniProt Q13867); conditions: prior art; cited from earlier work
T2 sequence (Q13867 1-455): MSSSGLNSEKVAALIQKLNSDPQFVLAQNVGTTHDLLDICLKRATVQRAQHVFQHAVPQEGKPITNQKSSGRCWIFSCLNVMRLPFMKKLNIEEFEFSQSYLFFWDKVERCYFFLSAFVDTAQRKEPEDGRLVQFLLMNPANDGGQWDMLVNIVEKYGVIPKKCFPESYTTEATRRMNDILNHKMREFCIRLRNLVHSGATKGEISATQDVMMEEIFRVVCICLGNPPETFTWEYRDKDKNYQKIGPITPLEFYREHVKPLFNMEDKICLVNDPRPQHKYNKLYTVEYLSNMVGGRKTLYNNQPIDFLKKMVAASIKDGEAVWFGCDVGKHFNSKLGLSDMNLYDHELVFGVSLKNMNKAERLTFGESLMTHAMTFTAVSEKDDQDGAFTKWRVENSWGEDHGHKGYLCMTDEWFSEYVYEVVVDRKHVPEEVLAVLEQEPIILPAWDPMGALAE

IC50 (aminopeptidase B [1]; read-out: ID50 (50% inhibition of aminopeptidase B) (converted)) [µM]	SMILES	ID50 (50% inhibition of aminopeptidase B) (aminopeptidase B [1]) [μ g/ml]	3H-Td.eta. incorporation (mean cpm ± SE) ([2]; dose 0.1 μg) [cpm]	3H-Td.eta. incorporation (mean cpm ± SE) ([2]; dose 1.0 μg) [cpm]	3H-Td.eta. incorporation (mean cpm ± SE) ([2]; dose 10.0 μg) [cpm]	effect on lymphocyte blastoid formation with PHA (in words) [2]	inhibitory activity against aminopeptidase B (in words) (aminopeptidase B [3])	inhibitory activity against leucine aminopeptidase (in words) (leucine aminopeptidase)	inhibitory activity against Bleomycin hydrolase (in words) (Bleomycin hydrolase)
–	CC(=O)O.CC(=O)O.Cc1ccc(CC(N)C(O)C(=O)NC(CCCN=C(N)N)C(=O)O)cc1 (racemic) [Example 3, (2RS, 3RS)-3-amino-2-hydroxy-4-p-methylphenylbutanoyl-(S)-arginine diacetate]	0.013	–	–	–	–	–	–	–
–	Cl.Cl.N=C(N)NCCC[C@H](NC(=O)[C@H](O)[C@H](N)Cc1ccccc1Cl)C(=O)O (racemic) [Example 4, (2RS, 3RS)-3-amino-2-hydroxy-4-o-chlorophenylbutanoyl-(S)-arginine dihydrochloride]	0.14	–	–	–	–	–	–	–
0.324	CC(C)C[C@H](NC(=O)[C@@H](O)[C@H](N)Cc1ccccc1)C(=O)O [Bestatin, (2S, 3R)-3-amino-2-hydroxy-4-phenylbutanoyl-(S)-leucine, reference compound]	–	19450 ± 189	16173 ± 631	18683 ± 71	enhance the lymphocyte blastoid formation with PHA	strong inhibitory activity	strong inhibitory activity	strong inhibitory activity
–	Cl.N=C(N)NCCC[C@H](NC(=O)[C@@H](O)[C@H](N)Cc1ccccc1)C(=O)O [Example 1, (2S, 3R)-3-amino-2-hydroxy-4-phenylbutanoyl-(S)-arginine hydrochloride]	0.03	17278 ± 400	19940 ± 1412	19050 ± 1988	enhance the lymphocyte blastoid formation with PHA	–	–	–
–	N=C(N)NCCC[C@H](NC(=O)[C@@H](O)[C@H](N)Cc1ccc(O)cc1)C(=O)O [Example 2, (2S, 3R)-3-amino-2-hydroxy-4-p-hydroxyphenylbutanoyl-(S)-arginine diacetate]	0.005	23113 ± 1236	21357 ± 578	20397 ± 304	enhance the lymphocyte blastoid formation with PHA	–	–	–
